Test results taken from PMC4052546 (Pharmaceuticals, 2011).
Values joined by “and” are separate entries in the source; they are usually repeats but may differ in a detail not shown here. Equal values may be shown once. Read-outs that look alike come from different tables or passages of the source.

How the values were obtained:
[1] = more active; cited from earlier work
[2] = rat, in vivo
Source text: An automated blood sampler (Culex ABS, Bioanalytical Systems, Inc. West Lafayette, IN) was used for rat blood sample collection.
(§1) Three samples were collected during each phase of absorption, distribution, or elimination for full PK analysis on the first and last dosing days following intravenous bonus injection. Additionally, trough levels (pre-dose) samples were collected in between each dose to follow drug accumulation and a series PK approach (18 samples per animal) was used. Thus, each animal was dosed and plasma samples were obtained for up to three days. A total of 18 (0, 5, 15, 30, 45 min, 1, 2, 3, 6, 24.25, 48.167, 48.25, 48.5, 48.75, 49, 50, 51, and 54 h) samples were collected into cooled vials. 50 μL of blood per sample was collected pre-dosing and after dosing and 100 μL per sample was taken from 0.08 h to 56 h after dosing. During collection, blood samples were added into the vials, which contained dried heparin (50 units) on the bottom of each vial. Thus, a total blood volume of 1.75 mL was obtained from each rat during the three day treatment period (0.85 mL of blood on day 0, 0.1 mL on day 1, and 0.9 mL on day 2), which is 9.3% of the animals total blood volume. Subjects for replicated crossover design were followed FDA recommendation [22] with a 2 week wash out period. During wash-out period, if the catheter was blocked up by any reasons the jugular vein tubes were infused or replaced.
The area under the curve (AUC) was determined by the linear trapezoidal rule with extrapolation to infinity based on the concentration of the last time point divided by the terminal rate constant.

[3] = Pharmacokinetics of AS and DHA in rat plasma after single and multiple intravenous AS injections (automated blood sampler, LC-MS/MS);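 for all read-outs here: blood drawn through a jugular vein catheter by an automated sampling system, plasma drug levels measured by LC-MS/MS with positive electrospray ionization against standard curves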; format: in vivo, Sprague-Dawley rats; conditions: for AUC0–3 h / Cmin / Degree of Fluctuation = 100% × (Cmax − Cmin)/Cav / Cmax / MRT / Tmax / AUC(0-t) / AUC / half-life / average plasma concentration over 0–72 h (Cav = AUC0–72 h/72): 20 mg/kg i.v. daily for 3 days, male rats; for Cmax / MRT / Tmax / AUC(0-t) / AUC / half-life / average plasma concentration over 0–72 h (Cav = AUC0–72 h/72): male, Sprague-Dawley, rat, plasma, iv, 20 mg/kg; for AUC(0-t): read-out: AUC0–3 h; for AUC: read-out: AUCinfininty
Procedure: The Culex ABS is a blood sampling and metabolism monitoring machine, which is controlled by its own internal computer. We were successful in evaluating PK for long-term periods by using this system. After jugular vein cannulation, study animals were individually placed in the system, which allowed for a micro-pump to infuse heparinized-saline (10 unit heparin/mL saline) at a rate of 1-2 μL/min to prevent coagulation within the catheter. Culex samples were obtained with precise blood volumes from the study animals and the total volume taken was less than 6% per day and 14% during the entire study period. Blood samples were maintained at 3 °C using Culex's temperature-controlled fractional collector. Plasma was separated from the blood samples and processed for drug extraction.
as §1
The samples were vortexed vigorously (set at 10 or max setting) for 8–10 sec followed by a 10,000 × g centrifugation at 4 °C for 10 min. Aliquots (approximately 250 μL ea) of the undisturbed supernatants were transferred into a 96-well plate for LC-MS/MS analyses. […] Drugs were chromatographically separated using an acetonitrile/ammonium acetate gradient through a Waters XTerra C18 column (2.1 × 50 mm, 3.5 μm particle size) and corresponding pre-column. Quantification was done using the most abundant daughter ions following positive electrospray ionization. Chromatograms were analyzed using Xcalibur mass spectrometry software. The responses-concentrations standard curves were fitted and weighted.
The area under the curve (AUC) was determined by the linear trapezoidal rule with extrapolation to infinity based on the concentration of the last time point divided by the terminal rate constant. The bioequivalence (BE) evaluation of the two formulations were analyzed by using BE software (WinNonlin 5.2, Pharsight Co. Mountain View, CA. USA) in rats for a NDA application.

[4] = cited from earlier work
[5] = male, Sprague-Dawley, iv, 20 mg/kg, 1 day
[6] = Chinese formulation (AS/NaHCO3), Period 1, Day 3
[7] = Chinese formulation (AS/NaHCO3), Period 2, Day 3
[8] = WRAIR formulation (AS/0.3M PBS Buffer), Period 1, Day 3
[9] = WRAIR formulation (AS/0.3M PBS Buffer), Period 2, Day 3
[10] = Chinese formulation (AS/NaHCO3), Period 1, Day 1
[11] = Chinese formulation (AS/NaHCO3), Period 2, Day 1
[12] = WRAIR formulation (AS/0.3M PBS Buffer), Period 1, Day 1
[13] = WRAIR formulation (AS/0.3M PBS Buffer), Period 2, Day 1

- 90% CI for the difference between the two i.v. formulations, AUC1–3D ([2]; Sprague-Dawley, iv): 79.11–120.89%
- 90% CI of the difference between the two intravenous formulations, AUCD3 ([2]; Sprague-Dawley, iv, 3 day): 71.32–128.67%
- 90% CI for T/R, Lower, AUCD1 [2, 5]: 82.04%
- 90% CI for T/R, Upper, AUCD1 [2, 5]: 117.96%
- BE (bioequivalence), AUCD1 [2]: Yes
- BE (bioequivalence), Cmax D1 [2]: No
- 90% CI between the two intravenous formulations, AUC0–3 h ([2]; iv): 82.04–117.96%
- AUC0–3 h [3, 6]: 990.8 ± 224.7 ng·h/mL
- Cmin [3, 6]: 2.96 ± 2.31 ng/mL
- Degree of Fluctuation = 100% × (Cmax − Cmin)/Cav [3, 6]: 860% and 860.1 ± 121.1%
- AUC0–3 h [3, 7]: 905.2 ± 188.7 ng·h/mL
- Cmin [3, 7]: 4.52 ± 2.25 ng/mL
- Degree of Fluctuation = 100% × (Cmax − Cmin)/Cav [3, 7]: 844 ± 64%
- time at which Cmax was measured ([3]; Chinese formulation, 20 mg/kg i.v., rats, period 1, day 1): 15 min
- time at which Cmax was measured ([3]; Chinese formulation, 20 mg/kg i.v., rats, period 2, day 1): 15 min
- time at which Cmax was observed ([3]; Chinese formulation, 20 mg/kg i.v., rats, period 2, day 3): 15 min
- Cmin [3, 8]: 6.59 ± 3.06 ng/mL
- Cmin [3, 9]: 5.38 ± 3.77 ng/mL
- time at which Cmax was measured ([3]; WRAIR formulation, 20 mg/kg i.v., rats, period 1, day 1): 15 min
- Cmax [3, 10]: 3360 ng/mL
- MRT [3, 10]: 22.8 ± 7.8 min
- Tmax [3, 10]: 15 min
- AUC(0-t) [3, 10]: 1570 ng·h/mL
- AUC [3, 10]: 1570 ± 350 ng·h/mL
- half-life ([3]; Chinese formulation (AS/NaHCO3), Period 1, Day 1, read-out: t1/2 distribution (converted)): 7.2 ± 1.2 min
- half-life ([3]; Chinese formulation (AS/NaHCO3), Period 1, Day 1, read-out: t1/2 elimination (converted)): 45 ± 6 min
- Cmax [3, 6]: 2780 ng/mL
- MRT [3, 6]: 21 ± 3.6 min
- Tmax [3, 6]: 10.2 ± 5.4 min
- average plasma concentration over 0–72 h (Cav = AUC0–72 h/72) [3, 6]: 330 ng·h/mL
- AUC(0-t) [3, 6]: 991 ng·h/mL
- AUC [3, 6]: 994 ± 225 ng·h/mL
- half-life ([3]; Chinese formulation (AS/NaHCO3), Period 1, Day 3, read-out: t1/2 distribution (converted)): 5.4 ± 0.6 min
- half-life ([3]; Chinese formulation (AS/NaHCO3), Period 1, Day 3, read-out: t1/2 elimination (converted)): 40.8 ± 9 min
- Cmax [3, 11]: 2690 ng/mL
- MRT [3, 11]: 27.6 ± 8.4 min
- Tmax [3, 11]: 15 min
- AUC(0-t) [3, 11]: 1220 ng·h/mL
- AUC [3, 11]: 1230 ± 266 ng·h/mL
- half-life ([3]; Chinese formulation (AS/NaHCO3), Period 2, Day 1, read-out: t1/2 distribution (converted)): 7.2 ± 1.2 min
- half-life ([3]; Chinese formulation (AS/NaHCO3), Period 2, Day 1, read-out: t1/2 elimination (converted)): 43.8 ± 10.2 min
- Cmax [3, 7]: 2450 ng/mL
- MRT [3, 7]: 22.8 ± 1.2 min
- Tmax [3, 7]: 15 min
- AUC(0-t) [3, 7]: 905 ng·h/mL
- AUC [3, 7]: 910 ± 188 ng·h/mL
- half-life ([3]; Chinese formulation (AS/NaHCO3), Period 2, Day 3, read-out: t1/2 distribution (converted)): 4.8 ± 0.6 min
- half-life ([3]; Chinese formulation (AS/NaHCO3), Period 2, Day 3, read-out: t1/2 elimination (converted)): 43.2 ± 7.2 min
- Cmax [3, 12]: 3150 ng/mL
- MRT [3, 12]: 23.4 ± 4.8 min
- Tmax [3, 12]: 15 min
- AUC(0-t) [3, 12]: 1460 ng·h/mL
- AUC [3, 12]: 1460 ± 211 ng·h/mL
- half-life ([3]; WRAIR formulation (AS/0.3M PBS Buffer), Period 1, Day 1, read-out: t1/2 distribution (converted)): 7.2 ± 0.6 min
- half-life ([3]; WRAIR formulation (AS/0.3M PBS Buffer), Period 1, Day 1, read-out: t1/2 elimination (converted)): 58.8 ± 8.4 min
- Cmax [3, 8]: 2810 ng/mL
- MRT [3, 8]: 20.4 ± 6.6 min
- Tmax [3, 8]: 15 min
- average plasma concentration over 0–72 h (Cav = AUC0–72 h/72) [3, 8]: 367 ng·h/mL
- AUC(0-t) [3, 8]: 1100 ng·h/mL
- AUC [3, 8]: 1110 ± 174 ng·h/mL
- half-life ([3]; WRAIR formulation (AS/0.3M PBS Buffer), Period 1, Day 3, read-out: t1/2 distribution (converted)): 5.4 ± 0.6 min
- half-life ([3]; WRAIR formulation (AS/0.3M PBS Buffer), Period 1, Day 3, read-out: t1/2 elimination (converted)): 54 ± 7.2 min
- Cmax [3, 13]: 3520 ng/mL
- MRT [3, 13]: 24 ± 2.4 min
- Tmax [3, 13]: 15 min
- AUC(0-t) [3, 13]: 1510 ng·h/mL
- AUC [3, 13]: 1510 ± 293 ng·h/mL
- half-life ([3]; WRAIR formulation (AS/0.3M PBS Buffer), Period 2, Day 1, read-out: t1/2 distribution (converted)): 8.4 ± 0.6 min
- half-life ([3]; WRAIR formulation (AS/0.3M PBS Buffer), Period 2, Day 1, read-out: t1/2 elimination (converted)): 54.6 ± 4.2 min
- Cmax [3, 9]: 3120 ng/mL
- MRT [3, 9]: 23.4 ± 1.8 min
- Tmax [3, 9]: 15 min
- AUC(0-t) [3, 9]: 1040 ng·h/mL
- AUC [3, 9]: 1050 ± 160 ng·h/mL
- half-life ([3]; WRAIR formulation (AS/0.3M PBS Buffer), Period 2, Day 3, read-out: t1/2 distribution (converted)): 5.4 ± 8.4 min
- half-life ([3]; WRAIR formulation (AS/0.3M PBS Buffer), Period 2, Day 3, read-out: t1/2 elimination (converted)): 52.8 ± 8.4 min
SMILES: C[C@H]1[C@@H](O)O[C@@H]2O[C@@]3(C)CC[C@H]4[C@H](C)CC[C@@H]1[C@@]24OO3 [DHA, dihydroartemisinin]
- activity compared with other artemisinin derivatives [1]: 3-5 fold
- elimination half-life (t1/2) [4]: 40 to 60 min
